From patent US20240309014A1, “MACROCYCLIC COMPOUNDS AND USES THEREOF” (President and Fellows of Harvard College, priority 2017, published 2024)

Legend:
[1] = system: human squamous cell carcinoma of the head and neck (SCCHN) cell line FaDu; assay: FaDu growth inhibition assay; format: cell-based; details: 3 days incubation, CellTiter-Glo
Method: In this assay, the growth inhibitory activity of test compounds in a human squamous cell carcinoma of the head and neck (SCCHN) cell line FaDu was measured. FaDu cells were maintained in an RPMI-1640 (Wako Pure Chemical Industries, Ltd., 187-02021) medium containing 10% fetal bovine serum (FBS: Nichirei, 12D168), and penicillin and streptomycin in a 5% CO2 incubator (37° C.). To each well of a 96 well plate (Becton, Dickinson and Company, 353219), 75 μL of FaDu cell suspension adjusted to a concentration of 4×10^4 cells/mL with the culture medium was added, and the cells were incubated overnight in a 5% CO2 incubator (37° C.). On the next day, 25 μL of Compound (1) or Halichondrin B in three-fold dilution series suspended in the culture medium was added to each well, and the resultant was incubated for 3 days in a 5% CO2 incubator (37° C.). Then, cell viability was determined by CellTiter-Glo® Luminescent Cell Viability Assay (Promega) with EnVision 2103 Multilabel Reader (Perkin-Elmer, Wellesley, MA). Value of the wells containing cells without adding the test compounds was defined as 100% and the value of the wells containing no cells was defined as 0%. The concentration of the test compound necessary for inhibiting the cell growth by 50% (i.e., an IC50 value) was calculated, and shown in Table 1.

[2] = system: human breast cancer cell line HCC1954; assay: HCC1954 growth inhibition assay (Test Example 3); format: cell-based; details: 3 days incubation, CellTiter-Glo
Method: In this assay, the growth inhibitory activity of test compounds in a human breast cancer cell line HCCl954 was measured. HCC1954 cells were maintained in an RPMI-1640 medium modified to contain 2 mM L-glutamine, 10 mM HEPES, 1 mM sodium pyruvate, 4500 mg/L glucose, and 1500 mg/L sodium bicarbonate (ATCC 30-2001) containing 10% fetal bovine serum (FBS: Nichirei, 12D168), and penicillin and streptomycin in a 5% CO2 incubator (37° C.). To each well of a 96 well plate (Becton, Dickinson and Company, 353219), 75 μL of HCC1954 cell suspension adjusted to a concentration of 4×10^4 cells/mL with the culture medium was added, and the cells were incubated overnight in a 5% CO2 incubator (37° C.). On the next day, 25 μL of Compound (1) or Halichondrin B in three-fold dilution series suspended in the culture medium was added to each well, and the resultant was incubated for 3 days in a 5% CO2 incubator (37° C.). Then, cell viability was determined by CellTiter-Glo® Luminescent Cell Viability Assay (Promega) with EnVision 2103 Multilabel Reader (Perkin-Elmer, Wellesley, MA). Value of the wells containing cells without adding the test compounds was defined as 100% and the value of the wells containing no cells was defined as 0%. The concentration of the test compound necessary for inhibiting the cell growth by 50% (i.e., an IC50 value) was calculated, and shown in Table 3.

[3] = system: FaDu subcutaneous xenograft; assay: Antitumor effects in FaDu subcutaneous xenograft model as monotherapy; format: in vivo, nude mice; details: intravenous at MTD: Halichondrin B 0.05 mg/kg, Compound (1) 0.2 mg/kg
Method: (§1) A human squamous cell carcinoma of the head and neck (SCCHN) cell line FaDu, which had been cultured in an RPMI-1640 medium containing 10% FBS, and penicillin and streptomycin, was adjusted to a concentration of 4.8×10^7 cells/mL with Hanks' Balanced Salt Solution to prepare a cell suspension. The cell suspension was inoculated in a volume of 100 μL into a subcutaneous part of a right flank of nude mice, 7 weeks of ages (CAnN.Cg-Foxnlnu/CrlCrlj, female, Charles River Laboratories Japan Inc.). Nine days after cell inoculation, the shortest diameter and the longest diameter of a tumor in each mouse were measured by using an electronic digital caliper (Digimatic™ caliper, Mitutoyo Corporation), so as to calculate the volume of the tumor in accordance with the following calculation formulae: […]
(§2) On the basis of the volumes of tumors obtained on the first day of administration, the mice were grouped such that averages of the tumor volumes were substantially equal among the groups. Each test compound was dissolved in DMSO and a solution was stored at the freezer before use. Immediately before the administration, the stock solution was diluted in saline with 100 μM of hydroxypropyl-β-cyclodextrin. Each evaluation sample was intravenously administered at a maximum tolerable dose (MTD). Incidentally, the experiment was conducted on groups each consisting of 4 mice.

[4] = system: FaDu subcutaneous xenograft; assay: FaDu subcutaneous xenograft model in combination with cetuximab; format: in vivo, nude mice
Description: as §1, with “5×10^7” for “4.8×10^7”, “[…]” for “μL”, “Ten” for “Nine”
as §2, with “Each evaluation sample was intravenously administered at a maximum tolerable dose (MTD).” left out

[5] = ¼ MTD i.v. (Halichondrin B 0.0125 mg/kg, Compound (1) 0.05 mg/kg) + cetuximab 20 mg/kg
[6] = ½ MTD i.v. (Halichondrin B 0.025 mg/kg, Compound (1) 0.1 mg/kg) + cetuximab 20 mg/kg

SMILES: C=C1C[C@@H]2CC[C@@]34C[C@H]5O[C@H]6[C@@H](O3)[C@H]3O[C@H](CC[C@@H]3O[C@H]6C5O4)CC(=O)O[C@@H]3[C@@H](C)[C@@H]4O[C@@H]5C[C@]6(C[C@@H]7O[C@]8(C[C@H](C)[C@@H]9O[C@H](CN)[C@H](O)C[C@@H]9O8)C[C@H](C)[C@@H]7O6)O[C@@H]5C[C@@H]4O[C@H]3C[C@H]3O[C@@H](CC[C@@H]1O2)C[C@@H](C)C3=C (stereo in doubt) [Compound (1)]
- IC50 ([1]; Homo sapiens, FaDu, 72 h): 0.0714 nM
- IC50 ([2]; Homo sapiens, HCC1954, 72 h): 0.0668 nM
- Tumor Regression (%) [3]: 43%
- Tumor Regression on day 35 (%) [4, 5]: 38%
- Tumor Regression on day 35 (%) [4, 6]: 60%

SMILES: C=C1C[C@@H]2CC[C@@]34C[C@H]5O[C@H]6[C@@H](O3)[C@H]3O[C@H](CC[C@@H]3O[C@H]6[C@H]5O4)CC(=O)O[C@@H]3[C@@H](C)[C@@H]4O[C@@H]5C[C@]6(C[C@@H]7O[C@]8(C[C@H](C)[C@@H]9O[C@H]([C@@H](O)C[C@@H](O)CO)C[C@@H]9O8)C[C@H](C)[C@@H]7O6)O[C@@H]5C[C@@H]4O[C@H]3C[C@H]3O[C@@H](CC[C@@H]1O2)C[C@@H](C)C3=C [Halichondrin B, reference compound]
- IC50 [1]: 0.124 nM
- IC50 [2]: 0.154 nM
- Tumor Regression (%) [3]: 0%
- Tumor Regression on day 35 (%) [4, 5]: −38%
- Tumor Regression on day 35 (%) [4, 6]: −2%
